Patent US20070191449A1, “Use of Benzo-Heteroaryl Sulfamide Derivatives for the Treatment of Depression” (priority 2006, published 2007)

Columns and labels:
[1] = Drug concentration in terminal plasma and brain of RSBM rats (LC-MS-MS); format: in vivo, Male Sprague Dawley rats; settings: submissive rats treated with increasing doses (6, 30, 60 mg/kg p.o. BID)
Text: Rats were housed four per cage. Access to food was restricted to one hour per day after testing on Monday through Thursday. After testing on Friday, rats had free access to food until being fasted again on Sunday. At no time were the rats deprived of water. The food deprivation periods used had little effect on weight gain as the average weight of rats was about 300 g at the end of the study. At the conclusion of experiment rats were sacrificed by decapitation, the trunk blood and brains were collected for in vitro experiments and drug concentration measurements.
Terminal blood samples (0.5-1.0 mL) were collected post experiment into heparinized tubes. Blood samples were centrifuged for cell removal, and 200 μL of plasma supernatant was then transferred to a clean vial, placed on dry ice, and subsequently stored in a −80° C. freezer prior to analysis. Two hundred microliters of acetonitrile containing internal standard was added to 100 μL of plasma or brain tissue to precipitate proteins and/or tissue residues. Samples were centrifuged and supernatant removed for analysis by liquid chromatography-triple quadruple mass spectrometry (LC-MS-MS). […] Calibration standards were prepared in the range of 0.01 to 10 μM for quantitation. […]

[2] = system: Male NMRI mice; experiment: Mouse Tail Suspension In Vivo Assay; settings: for Immobilization Time (sec); (mean ± SEM): single dose 30 min prior to tail suspension
Procedure: The tail suspension test (TST) is an acute test of anti-depressant activity.
Male NMRI mice (25-30 g; n=13-15 mice per dose) were given a single dose of vehicle (aqueous solution of 1 equivalent tartaric acid+0.45% NaCl+10% cyclodextrin, i.p.), imipramine (20 mg/kg, i.p. in an aqueous solution of 0.9% NaCl) or Compound #1 (at 5, 10, 20, 40 or 80 mg/kg, i.p.) 30 min prior to tail suspension. In this test, the mice were submitted to an unpleasant and inescapable situation (hanging by the tail) for 6 min. Once suspended, motor activity diminished rapidly and the mice became immobile. A compound was considered active as an antidepressant in this model, when there was a reduction in immobility time. Viewpoint video-tracking software was utilized to record immobility time.
Therefore, a compound which is not active in this model may nonetheless be active as an antidepressant.

[3] = system: submissive rats; experiment: Dominant-Submissive Competition: Reduction of Submissive Behavior Model (RSBM); format: in vivo, Male Sprague Dawley rats
Procedure: Dominance and submissiveness, defined in a competition test and measured as the relative success of two food-restricted rats to gain access to a feeder, form a behavioral paradigm—the Dominant Submissive Relationship (DSR). This paradigm results in two models which are predictive of ability of test compounds (drugs) to treat mood disorders.
Test compounds are evaluated for either their ability to inhibit the dominant behavior of rats taking food at the expense of an opponent (reduction of dominant behavior model or RDBM) and thus their potential as treatments for mania; or for their ability to increase the competitive behavior of submissive rats losing such encounters (reduction of submissive behavior model or RSBM) and thus their potential as treatments for depression; (Malatynska, E., and Knapp, R. J., Neuroscience and Biobehavioral Review, 29 (2005) 715-737). […]
The basic testing apparatus consisted of two chambers connected with a tunnel only large enough to allow one rat to pass through at a time. […] During the five-minute daily sessions, time spent in the feeder zone by each rat was recorded by the video tracking software and saved into a text file.
The test began with a random assignment of rats into pairs. […] The time spent in the feeder zone by each animal was recorded. […]

[4] = system: Male C57BL/6 mice; experiment: Mouse Forced Swim Test; format: in vivo; settings: not statistically significant (p=0.19)
Procedure: The forced swim test (FST) is an acute test of anti-depressant activity. Note that in this test, antidepressant-like compounds such as tricyclics, MAO inhibitors, SSRIs and others show activity, although the level of measured activity can vary with strain differences.
Male C57BL/6 mice (˜25 g; n=10 mice per dose) were given a single dose of vehicle (an aqueous solution of 1 equivalent tartaric acid+0.45% NaCl+10% cyclodextrin, s.c.), Compound #1 (at 5, 10, 20, 40 or 80 mg/kg, s.c.) or imipramine (10 mg/kg, i.p. in an aqueous solution of 0.9% NaCl) 30 min prior to entrance into the swim chamber. In this test, mice were placed in a water-filled cylinder in which they were unable to escape or touch the bottom of the chamber for 6 min. Once immersed in water, motor activity diminished rapidly and the mice became immobile. Viewpoint video-tracking software was utilized to record immobility time. Other common behaviors such as swimming and climbing activity were not measured in this study.

NS(=O)(=O)NCc1csc2ccccc12 [Compound #1, N-(benzorblthien-3-vimethyl)-sulfamide]
exposure in plasma and brain [1]: linear increase in exposure both in plasma and brain | Immobilization Time (sec); (mean ± SEM) ([2]; 5 mpk i.p.): 66.1 ± 10.1 s | Immobilization Time (sec); (mean ± SEM) ([2]; 10 mpk i.p.): 96.4 ± 12.4 s | Immobilization Time (sec); (mean ± SEM) ([2]; 20 mpk i.p.): 110.1 ± 15.8 s | Immobilization Time (sec); (mean ± SEM) ([2]; 40 mpk i.p.): 100.5 ± 13.9 s | Immobilization Time (sec); (mean ± SEM) ([2]; 80 mpk i.p., increase resembled sedation (p=0.003)): 160 s | Immobilization Time (sec); (mean ± SEM) ([2]; 80 mpk i.p., increase resembled sedation (p=0.003), listed as #1): 160.4 ± 10.7 s | statistical significance of the reduction of submissive behavior ([3]; after 17 days of treatment with 60 mg/kg, p<0.01): statistically significant | reduction of submissive behavior ([3]; submissive rats treated p.o. BID at 6, 30 or 60 mg/kg): reduced submissive behavior in a dose-dependent manner

CN(C)CCCN1c2ccccc2CCc2ccccc21 [Imipramine, reference compound]
decrease in immobility time ([4]; 10 mg/kg i.p. versus vehicle (152 sec)): 20% | immobility time ([4]; 10 mg/kg i.p., vehicle=152 sec): 122 s | decrease in immobility time ([2]; 20 mg/kg i.p. versus vehicle (71 sec), p=0.0004): 75% | Immobilization Time (sec); (mean ± SEM) ([2]; 20 mpk i.p.): 18.0 ± 5.8 s | Immobilization Time (sec); (mean ± SEM) ([2]; 20 mpk i.p., listed as imipramine): 18 s
